Laboratory results taken from patent US8338471B2, “(2,5-dioxoimidazolidin-i-yl)-n-hydroxy-acetamides as metalloproteinase inhibitors” (Medivir AB, priority 2005, dated 2012).

Tests used:
Assay type in all cases: biochemical
recombinant human MMP-3 = target: T1, recombinant human MMP-3 (Homo sapiens, UniProt P08254); assay: MMP-3 enzyme assay (FRET substrate), selectivity versus MMP-12; conditions: fold difference in Ki for MMP-3 compared to MMP-12
T1 construct: purchased R&D Systems
Procedure: The activity was measured by a continuous detection of increased fluorescence intensity during 12 min. The substrate consisted of a peptide with a fluorescent donor 7-methoxycoumarin (Mca) and a quenching acceptor 2,4-dinitrophenyl group (Dpa), typically Mca-Arg-Pro-Lys-Pro-Val-Glu-Nval-Trp-Arg-Lys(Dnp)-NH2 (R&D Systems, ES002). The cleavage site by MMP-3 is the peptide bond between Glu and Nval. The compounds were tested at a range of concentrations, the enzyme concentration (MMP-3) was fixed at 400 ng/ml and the substrate concentrations was 10 μM. The MMP-3 assay used employs recombinant human MMP-3 (supplied by R&D Systems) in an assay buffer of 50 mM Tris-HCl, 200 mM calcium acetate at pH=7.5. The MMP-3 enzyme was preactivated by dilution to 0.119 mg/ml into 1 mM APMA (p-aminophenylmercuric acetate) followed by incubation at 37° C. for 24 hours. The substrate was prepared at a 100 μM stock solution in DMSO and a 96-well polypropylene plate was used for the reaction mixtures. To each well of the plate was added assay buffer 90.0 μl, enzyme (MMP-3) 0.3 μl and inhibitor 1 μl. The reactions were started by addition of substrate, 10 μl/well, to a total volume of 100 μl/well. The total concentration of DMSO was not above 1%. The assay was performed at ambient temperature. Product fluorescence ([…]) was monitored with a Thermo Labsystems Fluoroskan Ascent plate reader. The Ki was determined by Prism Software.
(§1) The selectivity for MMP-12 over MMP-3 and TACE was evaluated for a representative selection of the compounds of the invention by comparing the Ki figures obtained when tested in the corresponding enzyme assays, such as those described above. The selectivity is presented as the fold difference in Ki for TACE and MMP-3 compared to MMP-12 and is calculated as the ratio Ki(TACE)/KiMMP-12 and Ki(MMP-3)/KiMMP-12 respectively.

recombinant human TACE = target: T2, recombinant human TACE (Homo sapiens, UniProt P78536); assay: TACE enzyme assay (FRET substrate), selectivity versus MMP-12; conditions: fold difference in Ki for TACE compared to MMP-12
T2 construct: purchased R&D Systems
T2 sequence (P78536 215-824): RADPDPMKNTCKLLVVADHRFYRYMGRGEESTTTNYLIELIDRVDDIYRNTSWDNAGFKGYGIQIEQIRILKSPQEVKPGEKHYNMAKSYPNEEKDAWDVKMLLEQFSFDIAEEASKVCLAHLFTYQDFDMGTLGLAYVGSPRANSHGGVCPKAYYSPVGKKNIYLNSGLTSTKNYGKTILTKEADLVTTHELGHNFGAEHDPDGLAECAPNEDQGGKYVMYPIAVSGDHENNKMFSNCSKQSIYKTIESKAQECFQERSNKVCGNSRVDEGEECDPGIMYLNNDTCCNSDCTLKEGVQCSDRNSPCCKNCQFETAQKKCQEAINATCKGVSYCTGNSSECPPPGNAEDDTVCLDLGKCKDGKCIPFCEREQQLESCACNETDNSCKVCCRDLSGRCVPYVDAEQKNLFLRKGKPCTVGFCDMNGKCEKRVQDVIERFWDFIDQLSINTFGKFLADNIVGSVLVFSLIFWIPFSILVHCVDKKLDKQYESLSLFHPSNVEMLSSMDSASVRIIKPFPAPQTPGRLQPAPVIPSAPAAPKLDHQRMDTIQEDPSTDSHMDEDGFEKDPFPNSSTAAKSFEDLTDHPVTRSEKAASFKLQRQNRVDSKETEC
Procedure: The activity was measured by a continuous detection of increased fluorescence intensity during 12 min. The substrate consisted of a peptide with a fluorescent donor 7-methoxycoumarin (Mca) and a quenching acceptor 2,4-dinitrophenyl group (Dpa), typically Mca-P-L-A-Q-A-V-Dpa-R-S-S-S-R-NH2 (R&D Systems, ES003). The cleavage site by TACE is the peptide bond between Ala and Val. The compounds were tested at a range of concentrations while the enzyme and substrate concentrations were fixed. A typical TACE assay employs recombinant human TACE (supplied by R&D Systems) in an assay buffer (25 mM Tris-HCl, pH=9.0, 2.5 μM ZnCl2, 0.005% Brij 35). The enzyme concentration (TACE) used was 100 ng/ml, the substrate was prepared at a 100 μM stock solution in DMSO and a 96-well polypropylene plate was used for the reaction mixtures. To each well of the plate was added assay buffer 90.0 μl, enzyme (TACE) 0.09 μl and inhibitor 1 μl. The reactions were started by addition of substrate 10 μl/well, giving a substrate concentration of 10 μM and a total volume of 100 μl/well. The total concentration of DMSO was not above 1%. The assay was performed at ambient temperature. Product fluorescence ([…]) was monitored with a Thermo Labsystems Fluoroskan Ascent plate reader. The Ki was determined by Prism Software.
as §1

recombinant human MMP-12 = target: T3, recombinant human MMP-12 (Homo sapiens, UniProt P39900); assay: MMP-12 enzyme assay (FRET substrate)
T3 construct: purchased R&D Systems; host or cells: mouse myeloma cell line NS-40 (so in the source)
T3 sequence (P39900 106-470): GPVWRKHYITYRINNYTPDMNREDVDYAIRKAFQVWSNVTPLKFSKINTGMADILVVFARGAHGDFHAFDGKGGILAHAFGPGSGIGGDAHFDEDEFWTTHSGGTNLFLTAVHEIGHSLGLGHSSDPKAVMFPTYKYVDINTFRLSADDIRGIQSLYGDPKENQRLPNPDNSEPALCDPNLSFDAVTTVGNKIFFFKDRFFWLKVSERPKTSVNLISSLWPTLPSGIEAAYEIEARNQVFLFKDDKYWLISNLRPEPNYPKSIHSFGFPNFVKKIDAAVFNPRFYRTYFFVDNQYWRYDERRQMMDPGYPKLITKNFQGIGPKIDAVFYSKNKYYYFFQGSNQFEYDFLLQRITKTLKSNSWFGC
Procedure: A typical MMP-12 enzyme assay employs recombinant human MMP-12 catalytic domain expressed and purified as described by Parkar A. A. et al, (2000), Protein Expression and Purification, 20:152. The purified enzyme can be used to monitor inhibitors of activity as follows: MMP-12 (50 ng/ml final concentration) is incubated for 60 minutes at room temperature with the synthetic substrate Mac-Pro-Cha-Gly-Nva-His-Ala-Dpa-NH2 in assay buffer (0.1M “Tris-HCl” (trade mark) buffer, pH 7.3 containing O.1M NaCl, 20 mM CaCl2, 0.020 mM ZnCl and 0.05% (w/v) “Brij 35” (trade mark) detergent) in the presence (5 concentrations) or absence of inhibitors. Activity is determined by measuring the fluorescence at λex 320 nm and λem 405 nm. Percent inhibition is calculated as follows: % Inhibition is equal to the (Fluorescenceplus inhibitor−Fluorescencebackground); divided by the (Fluorescenceminus inhibitor−Fluorescencebackground);
A favoured assay employs full length recombinant human MMP-12, amino acid residues 1 to 470 (Shapiro et al 1993, J Biol Chem 268:23824-23829) expressed in mouse myeloma cell line NS-40. The purified rhMMP-12 typically has the N terminal sequence L17PLNSSTSLE and an SDS-PAGE apparent molecular mass of approx. 56 kDa. Such proteins are available from R&D Systems, USA as a lyophilised 0.2 um filtered solution of 25 mM MES, 0.15M NaCl, 10 mMCaCl2, 0.15% Brij 35, pH 5.5. Auto-activation of the rhMMP-12 can be achieved by dilution to 0.05 mg/ml into TCNB buffer (50 mMTris, 10 mM CaCl2, 0.15M NaCl, 0.05% Brij 35, pH 7) and incubation at 37 degrees for 30 hours. A preferred buffer for MMP work is 50 mM Tris.HCl, pH 7.5, 200 mM Ca acetate.
Suitable FRET substrates include (7-methoxycoumarin-4-yl)acetyl-Pro-Leu-Gly-Leu-(3-(2,4-dinitrophenoyl)-L-2,3-diaminopropionyl)-Ala-Arg-NH2, commercially available from R&D Systems, USA. Typical specific activities are >500 picomol/min/ug, with rhMMP-12 measured with 10 uM of this substrate, 20 ng activated enzyme in 100 ul TCNB buffer at room temperature.
An alternative general MMP substrate is Dnp-PLGLWAD-R-NH2.
Category A indicates ≦50 nM inhibition, category B indicates 51-200 nM inhibition and category C indicates >200 nM: […]

T1 sequence (P08254 100-477): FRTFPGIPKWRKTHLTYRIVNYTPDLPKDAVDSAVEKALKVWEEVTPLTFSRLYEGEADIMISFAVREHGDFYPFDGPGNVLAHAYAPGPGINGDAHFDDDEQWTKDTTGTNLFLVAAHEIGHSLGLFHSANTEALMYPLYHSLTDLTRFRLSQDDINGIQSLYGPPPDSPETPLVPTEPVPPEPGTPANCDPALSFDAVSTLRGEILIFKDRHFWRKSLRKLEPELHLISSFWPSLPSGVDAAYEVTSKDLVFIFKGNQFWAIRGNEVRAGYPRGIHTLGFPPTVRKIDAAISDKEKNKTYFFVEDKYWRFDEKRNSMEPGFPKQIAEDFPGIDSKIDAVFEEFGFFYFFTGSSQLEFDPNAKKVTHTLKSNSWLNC

SMILES	Ki(MMP-3)/Ki(MMP-12) (recombinant human MMP-3)	Ki(TACE)/Ki(MMP-12) (recombinant human TACE)	Ki (recombinant human MMP-12)
CC(C)[C@H](C(=O)NO)N1C(=O)N[C@@H](COCc2ccc(Br)cc2)C1=O (stereo in doubt) [Example 13i, 2-[4-(4-Bromobenzyloxymethyl)-2,5-dioxo-imidazolidin-1-yl]-N-hydroxy-3-methyl-butyramide]	>190	>190	–
O=C(NO)[C@@H](Cc1ccccc1)N1C(=O)N[C@@H](CCc2ccccc2)C1=O [Example 10, 2-(2,5-Dioxo-4-phenethyl-imidazolidin-1-yl)-N-hydroxy-3-phenhyl-propionamide]	34	>150	≤ 50 nM
CC(C)(C)[C@H](C(=O)NO)N1C(=O)N[C@@H](CCc2ccccc2)C1=O [Example 12, 2-(2,5-Dioxo-4-phenethyl-imidazolidin-1-yl)-N-hydroxy-3,3-dimethyl-butyramide]	122	245	–
CC(C)[C@H](C(=O)NO)N1C(=O)N[C@@H](COCc2ccc(C(F)(F)F)cc2)C1=O [Example 14, 2-[2,5-Dioxo-4-(4-trifluoromethyl-bezyloxymethyl)-imidazolidin-1-yl]-N-hydroxy-3-methyl-butyramide]	>500	>500	≤ 50 nM
CC(C)[C@H](C(=O)NO)N1C(=O)N[C@@H](COCc2cccc(F)c2)C1=O [Example 15, 2-[4-(3-Fluorobenzyloxymethyl)-2,5-dioxo-imidazolidin-1-yl]-N-hydroxy-3-methyl-butyramide]	120	>700	51 to 200 nM
CC(C)[C@H](C(=O)NO)N1C(=O)N[C@@H](CCCCNC(=O)c2ccccc2)C1=O [Example 25h]	–	–	> 200 nM
Cc1cccc(CCC2NC(=O)N(C(C(=O)NO)C(C)C)C2=O)c1 (centres unmarked) [Example 29, 2-[2,5-Dioxo-4-(2-m-tolylethyl)-imidazolidin-1-yl]-N-hydroxy-3-methyl-butyramide]	–	–	≤ 50 nM
COc1ccccc1CCC1NC(=O)N(C(C(=O)NO)C(C)C)C1=O (centres unmarked) [Example 31, N-Hydroxy-2-{4-[2-(2-methoxyphenyl)-ethyl]-2,5-dioxo-imidazolidin-1-yl}-3-methyl-butyramide]	–	–	≤ 50 nM
COc1cccc(CCC2NC(=O)N(C(C(=O)NO)C(C)C)C2=O)c1 (centres unmarked) [Example 32, N-Hydroxy-2-{4-[2-(3-methoxyphenyl)-ethyl]-2,5-dioxoimidazolidin-1-yl}-3-methylbutyramide]	>200	140	–
CC(C)[C@H](C(=O)NO)N1C(=O)N[C@@H](CCc2cccc(F)c2)C1=O [Example 37, 2-{4-[2-(3-Fluoro-phenyl)-ethyl]-2,5-dioxoimidazolidin-1-yl}-N-hydroxy-3-methylbutyramide]	–	–	≤ 50 nM

Continued, values first:

Ki(MMP-3)/Ki(MMP-12) (recombinant human MMP-3)	Ki(TACE)/Ki(MMP-12) (recombinant human TACE)	Ki (recombinant human MMP-12)	SMILES
71	>4500	–	CC(C)[C@H](C(=O)NO)N1C(=O)N[C@@H](CCc2ccc(-c3ccccc3)cc2)C1=O (stereo in doubt) [Example 5, 2-[4-(2-Biphenyl-4-yl-ethyl)-2,5-dioxo-imidazolidin-1-yl]-N-hydroxy-3-methyl-butyramide]
–	–	≤ 50 nM	CC(C)[C@H](C(=O)NO)N1C(=O)N[C@@H](CCc2ccc(Oc3ccccc3)cc2)C1=O (stereo in doubt) [Example 26, 2-{2,5-Dioxo-4-[2-(4-phenoxyphenyl)-ethyl]-imidazolidin-1-yl}-N-hydroxy-3-methyl-butyramide]
140	380	–	CC(C)[C@H](C(=O)NO)N1C(=O)N[C@@H](CCc2ccccc2)C1=O [Example 1]
53	>80	51 to 200 nM	CC(C)[C@H](C(=O)NO)N1C(=O)N[C@H](CCc2ccccc2)C1=O [Example 7, 2-(2,5-Dioxo-4-phenethyl-imidazolidin-1-yl)-N-hydroxy-3-methyl-butyramide]
–	–	≤ 50 nM	Cc1ccccc1CCC1NC(=O)N(C(C(=O)NO)C(C)C)C1=O (centres unmarked) [Example 28, 2-[2,5-Dioxo-4-(2-o-tolylethyl)-imidazolidin-1-yl]-N-hydroxy-3-methyl-butyramide]
75	2200	≤ 50 nM	Cc1ccc(CCC2NC(=O)N(C(C(=O)NO)C(C)C)C2=O)cc1 (centres unmarked) [Example 30, 2-[2,5-Dioxo-4-(2-p-tolylethyl)-imidazolidin-1-yl]-N-hydroxy-3-methyl-butyramide]
–	–	≤ 50 nM	COc1ccc(CC[C@@H]2NC(=O)N([C@@H](C(=O)NO)C(C)C)C2=O)cc1 [Example 33, N-Hydroxy-2-{4-[2-(4-methoxyphenyl)-ethyl]-2,5-dioxoimidazolidin-1-yl}-3-methylbutyramide]
–	–	≤ 50 nM	CCc1ccc(CC[C@@H]2NC(=O)N([C@@H](C(=O)NO)C(C)C)C2=O)cc1 [Example 34, 2-{4-[2-(4-Ethylphenyl)-ethyl]-2,5-dioxoimidazolidin-1-yl}-N-hydroxy-3-methyl-butyramide]
240	280	≤ 50 nM	CC(C)[C@H](C(=O)NO)N1C(=O)N[C@@H](CCc2ccccc2F)C1=O [Example 36, 2-{4-[2-(2-Fluorophenyl)-ethyl]-2,5-dioxoimidazolidin-1-yl}-N-hydroxy-3-methylbutyramide]
–	–	≤ 50 nM	CC(C)[C@H](C(=O)NO)N1C(=O)N[C@@H](CCc2ccc(Cc3ccccc3)cc2)C1=O [Example 39, 2-{4-[2-(4-Benzylphenyl)-ethyl]-2,5-dioxoimidazolidin-1-yl}-N-hydroxy-3-methylbutyramide]
–	–	≤ 50 nM	CC(C)[C@H](C(=O)NO)N1C(=O)N[C@@H](CCc2ccc(C(=O)Cc3ccccc3)cc2)C1=O [Example 40, 2-{2,5-Dioxo-4-[2-(4-phenylacetyl-phenyl)-ethyl]-imidazolidin-1-yl}-N-hydroxy-3-methylbutyramide]
